{"source": "paper PMC4014072", "about": "(Molecular and cellular biochemistry, 2010)", "target": "LdLip3::HA (LdLip3 secretory lipase) (Leishmania donovani, UniProt D7P7V3)", "experiment": "fluorogenic 4MU release assay, anti-HA affinity-purified enzyme", "assay_type": "biochemical", "settings": "150 µM substrate, McIlvaine buffer pH 6.0, 37 and 42 °C, 30 min"}
{"smiles": "CCCCCCCCCCCCCCCCCC(=O)Oc1ccc2c(C)cc(=O)oc2c1", "note": "[4MU-stearate]", "values": [{"measurement": "fluorogenic 4MU release assay, anti-HA affinity-purified enzyme", "value": "LdLip3∷HA chimeric protein and pKSNEO controls were subsequently analyzed for lipase activity using 4MU-stearate"}]}
